Source: publication PMC12568646, “Enzymatic combinatorial synthesis of E-64 and related cysteine protease inhibitors” (Nature Chemical Biology, 2025)
Values belong to the molecule of their own block, whether it stands above or below them.

Tests used:
[1] = target: T1, Cp1D (Aspergillus flavus, UniProt A0A7U2QR00); test: LC-MS of amide product formation; type: biochemical; settings: 5 mM agmatine, 10 mM ATP, 10 mM MgCl2, 50 mM sodium phosphate pH 8.0, 30 °C
T1 construct: gene F9C07_2276917; full-length intron-free ORF in pET28a, 6xHis-tagged, expressed in E. coli BL21(DE3)
T1 sequence (A0A7U2QR00 1-463): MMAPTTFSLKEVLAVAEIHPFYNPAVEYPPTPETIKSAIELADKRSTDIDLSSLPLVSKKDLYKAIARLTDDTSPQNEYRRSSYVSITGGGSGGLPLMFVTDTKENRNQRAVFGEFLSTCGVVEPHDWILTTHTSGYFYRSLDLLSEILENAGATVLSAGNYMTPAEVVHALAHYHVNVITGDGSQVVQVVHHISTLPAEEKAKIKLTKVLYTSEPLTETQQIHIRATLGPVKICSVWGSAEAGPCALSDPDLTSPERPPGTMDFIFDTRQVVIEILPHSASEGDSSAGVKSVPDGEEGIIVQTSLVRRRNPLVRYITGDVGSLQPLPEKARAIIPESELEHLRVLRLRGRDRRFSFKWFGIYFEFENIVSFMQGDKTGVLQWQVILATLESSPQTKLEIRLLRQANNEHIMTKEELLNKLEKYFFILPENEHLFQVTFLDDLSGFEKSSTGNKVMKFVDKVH

[2] = target: T2, cathepsin B (Homo sapiens, UniProt P07858); test: fluorogenic Z-Phe-Arg-AMC assay; type: biochemical; settings: 40 μM Z-Phe-Arg-AMC, citrate phosphate pH 5.5, 5 mM DTT, 37 °C; covalent, irreversible
T2 construct: gene CTSB

[3] = target: T3, papain (Carica papaya, UniProt P00784); test: X-ray co-crystal structure; type: binding; settings: covalent, active-site Cys25
T3 construct: mature native enzyme, twice-crystallized from papaya latex (Sigma)
T3 sequence (P00784 134-345): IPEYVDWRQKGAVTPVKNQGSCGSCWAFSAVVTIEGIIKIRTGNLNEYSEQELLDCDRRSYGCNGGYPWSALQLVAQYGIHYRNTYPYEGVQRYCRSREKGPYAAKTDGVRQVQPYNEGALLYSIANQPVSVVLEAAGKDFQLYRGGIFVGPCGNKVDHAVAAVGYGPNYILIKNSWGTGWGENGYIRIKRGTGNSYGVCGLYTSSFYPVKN

[4] = tested on: T4, Cp1B; test: X-ray crystal structure, […] Å; design: species or system Aspergillus flavus; settings: ATP-binding site; crystal set up with ATP, MgCl2 and (±)-t-ES; MES also bound
T4 construct: full-length intron-free ORF in pET28a (pML8010), 6xHis-tagged, expressed in E. coli BL21(DE3); domains span residues 5-502

Structure (SMILES): CC[C@H](C)[C@H](NC(=O)[C@@H]1O[C@H]1C(=O)O)C(=O)O [(2R,3R)-t-ES-L-Ile]
KM (apparent) [1]: much more efficient compared to that toward (2R,3R)-t-ES-L-Ile

IC50 [2]: 14 ± 1.1 nM
Structure (SMILES): NCCCCCCCCNC(=O)[C@@H](NC(=O)[C@H]1O[C@@H]1C(=O)O)C1CCC1 [(2S,3S)-t-ES-a9-b7]
X-ray co-crystal structure [3]: (2S,3S)-t-ES-a9-b7 was observed to be bound covalently to the active site cysteine

Structure (SMILES): Nc1ncnc2c1ncn2[C@@H]1O[C@H](CO)[C@@H](O)[C@H]1O [adenosine]
X-ray crystal structure, 2.7 Å [4]: crystal structure of Cp1B complexed with adenosine and 2-morpholinoethanesulfonic acid (MES) was determined
